Laboratory results reported in patent US4468350A, “KA-6643-Series antibiotics, process for producing same and medical composition containing same” (Kowa Co., Ltd., priority 1980, dated 1984).
In brackets after ≈: the same amount, converted by molar mass. Where two headings read alike, the source gives them in different places.

Key:
β-lactamase = details: disclosed in Japanese Laid-open Patent Application Nos. 55-139380 and 56-43284; cited from earlier work
[1] = tested on: gram-positive and gram-negative bacteria; details: disclosed in Japanese Laid-open Patent Application Nos. 55-139380 and 56-43284; cited from earlier work
[2] = tested on: Pseudomonas aeruginosa NCTC 10490; assay: Antibacterial spectrum, minimum inhibitory concentration; format: cell-based; details: NCTC10490
[3] = tested on: Enterobacter cloacae IID 977; assay: as above; format: cell-based; details: IID977
dehydropeptidase = assay: Decomposition with dehydropeptidase (stability); format: in vitro ADME; details: dehydropeptidase extracted from pig kidney and purified; KA-6643-A given as 1
Solubility in solvents = format: physicochemical; details: sodium salt
[4] = tested on: Ampicillin-resistant Escherichia coli; assay: Synergistic effect with Ampicillin (AB-PC) on Ampicillin-resistant Escherichia coli (disc method); format: cell-based; details: for Inhibitory zone: AB-PC 500 mcg/ml; for Diameter of inhibitory zone: AB-PC added
Protocol: (§1) In Penassay agar (Kyoei Pharm. Co., Ltd.) in which 200 mcg/ml of aminobenzyl penicillin (AB-PC) was inoculated germs of Escherichia coli ML-1410R EC-1 which β-lactamase-producing organisms, and 10 ml of the inoculated medium were poured on a Petri disch of 9 cm in diameter and solidified to give a test medium.
(§2) On this agar medium were placed pulp discs of 8 mm in diameter into which were respectively introduced […] of aqueous solutions of the substance KA-6643-D with a concentration of 10 mcg/ml followed by culturing at 37° C. for 18 hours and measuring the diameter of an inhibition zone around each disc. For purposes of control, the above experiment was repeated using the same type of medium in which no AB-PC was added.
The synergistic effect of the present substance and Ampicillin (AB-PC) on the Ampicillin-resistant Escherichia coli was investigated by the disc method similarly to the case of item (II) above, except that AB-PC was used in an amount of 500 mcg/ml.
The synergistic effect of the present substance and Ampicillin (AB-PC) on the Ampicillin-resistant Escherichia coli was investigated by the disc method similarly to the case of item (II) above.

[5] = tested on: Escherichia coli NIHJ JC-2; assay: Antibacterial spectrum, minimum inhibitory concentration; format: cell-based; details: NIHJJC2
Proteus vulgaris OX17 = assay: as above; format: cell-based
[6] = tested on: Klebsiella pneumoniae PCI-602; assay: as above; format: cell-based; details: PCI602
[7] = tested on: Staphylococcus aureus 209P JC-1; assay: as above; format: cell-based
[8] = tested on: Escherichia coli ML-1410R EC-1; assay: Antibacterial activity-improving action against β-lactam-resistant bacteria (Disc method); format: cell-based; details: ML1410REC1, 18 h
Protocol: (1) Antibacterial activity-improving action against β-lactam-resistantbacteria (Disc method):
as §1, §2
The synergistic effect of the present substance and Ampicillin (aminobenzylpenicillin, AB-PC) on Escherichia coli which is resistant to Ampicillin was investigated by the disc method similarly to item (II) above with the results shown in Table 2.

Proteus inconstants = assay: Antibacterial spectrum, minimum inhibitory concentration; format: cell-based

| SMILES | β-lactamase inhibiting activity (β-lactamase) | antibacterial activity against both gram-positive and gram-negative bacteria [1] | MIC [2] | MIC [3] | rate of decomposition with dehydropeptidase (dehydropeptidase) | Solubility in water and methanol (Solubility in solvents) | MIC [5] | MIC (Proteus vulgaris OX17) | MIC [6] | MIC [7] | further results |
| --- | --- | --- | --- | --- | --- | --- | --- | --- | --- | --- | --- |
| CC(=O)NC=C[S+]([O-])C1=C(C(=O)O)N2C(=O)C(C(C)(C)OS(=O)(=O)O)C2C1 (stereo not shown) [KA-6643-B] | β-lactamase inhibiting activity | excellent antibacterial activity |  |  |  |  |  |  |  |  |  |
| CC(=O)NCCSC1=C(C(=O)O)N2C(=O)[C@@H](C(C)(C)O)[C@H]2C1 [KA-6643-G] |  |  | > 25 µg/mL | > 25 µg/mL | 2.5×10^-3 | Soluble | > 25 µg/mL | > 25 µg/mL | > 25 µg/mL | 6.25 µg/mL (≈ 19 µM) | Solubility in acetone, ethyl acetate and chloroform (Solubility in solvents; acetone, ethyl acetate and chloroform): substantially insoluble; Inhibitory zone ([4]; present substance 250 mcg/ml): 20.5 mm; Inhibitory zone ([4]; present substance 500 mcg/ml): 22.5 mm; Inhibitory zone ([4]; present substance 1,000 mcg/ml): 24.5 mm |
| CC(=O)NC=C[S+]([O-])C1=C(C(=O)O)N2C(=O)C(C(C)(C)O)C2C1 (stereo not shown) [KA-6643-A] | β-lactamase inhibiting activity | excellent antibacterial activity |  |  | 1 |  |  |  |  |  |  |
| CC(=O)NCCSC1=C(C(=O)O)N2C(=O)[C@@H](C(C)(C)OS(=O)(=O)O)[C@H]2C1 [KA-6643-D] |  |  | 25 µg/mL (≈ 61.2 µM) | 6.25 µg/mL (≈ 15.3 µM) |  |  | 3.1 µg/mL (≈ 7.59 µM) | 12.5 µg/mL (≈ 30.6 µM) | 3.1 µg/mL (≈ 7.59 µM) | 25 µg/mL (≈ 61.2 µM) | zone of inhibition at 10 µg/mL ([8]; read-out: Diameter of inhibitory zone, present compound 10 mcg/ml, AB-PC 200 mcg/ml in medium, 37° C.): 22 mm; zone of inhibition at 10 µg/mL ([8]; read-out: Diameter of inhibitory zone, present compound 10 mcg/ml, no AB-PC, 37° C.): 0 mm; Solubility in organic solvents (Solubility in solvents; organic solvents such as acetone, chloroform, ethyl acetate and petroleum ether): substantially insoluble; Solubility in water (Solubility in solvents; water): Readily soluble |
| CC(=O)NCCSC1=C(C(=O)O)N2C(=O)C(=C(C)CO)C2C1 (stereo not shown) [KA-6643-X] |  |  | 3.1 µg/mL (≈ 9.5 µM) | 0.78 µg/mL (≈ 2.39 µM) |  | Soluble | 0.05 µg/mL (≈ 0.153 µM) | 0.05 µg/mL (≈ 0.153 µM) | 0.2 µg/mL (≈ 0.613 µM) | 1.56 µg/mL (≈ 4.78 µM) | MIC (Proteus inconstants): 3.1 µg/mL (≈ 9.5 µM); Solubility in acetone, ethyl acetate, chloroform and ether (Solubility in solvents; acetone, ethyl acetate, chloroform and ether): substantially insoluble; zone of inhibition at 25 µg/mL ([4]; Escherichia coli, 18 h, present substance 25 mcg/ml, No AB-PC added, read-out: Diameter of inhibitory zone): 19 mm; zone of inhibition at 50 µg/mL ([4]; Escherichia coli, 18 h, present substance 50 mcg/ml, No AB-PC added, read-out: Diameter of inhibitory zone): 21 mm; Diameter of inhibitory zone ([4]; present substance 25 mcg/ml): 21.5 mm; Diameter of inhibitory zone ([4]; present substance 50 mcg/ml): 23.0 mm |
